Data: patent US7732471B2, “6-oxazol-4-ylmetholmethoxy-alko-alkoxymethyl substituted benzoic acid derivatives forming peroxisome proliferator—activated receptor (PPAR) ligands, process for their preparation and methods of use thereof” (Sanofi-Aventis, priority 2005, dated 2010)

Tests used:
human PPARalpha = biological target: T1, human PPARalpha (Homo sapiens, UniProt Q07869); test: Cellular PPARalpha assay (stably transfected HEK luciferase reporter cell line); format: cell-based; settings: PPARalpha reporter cell line (HEK, GR-GAL4-humanPPARalpha-LBD), 24 h incubation
T1 construct: human PPARalpha receptor (amino acids S167-Y468); expressed in transfected cells; host or cells: HEK cells, stably transfected (pcDNA3 construct)
T1 sequence (Q07869 167-468): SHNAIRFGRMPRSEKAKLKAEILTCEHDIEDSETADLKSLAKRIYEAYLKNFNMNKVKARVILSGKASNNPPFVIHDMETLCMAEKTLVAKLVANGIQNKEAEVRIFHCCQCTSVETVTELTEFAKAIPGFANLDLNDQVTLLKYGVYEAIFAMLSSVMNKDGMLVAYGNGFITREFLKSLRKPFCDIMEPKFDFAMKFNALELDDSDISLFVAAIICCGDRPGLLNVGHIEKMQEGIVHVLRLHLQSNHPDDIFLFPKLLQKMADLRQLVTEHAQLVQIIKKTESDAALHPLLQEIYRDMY
Procedure: Determination of EC50 Values of PPAR Agonists in the Cellular PPARalpha Assay
The potency of substances which bind to human PPARalpha and activate it in an agonistic manner is analyzed using a stably transfected HEK cell line (HEK=human embryonic kidney) which is referred to here as PPARalpha reporter cell line. It contains two genetic elements, a luciferase reporter element (pdeltaM-GAL4-Luc-Zeo) and a PPARalpha fusion protein (GR-GAL4-humanPPARalpha-LBD) which mediates expression of the luciferase reporter element depending on a PPARalpha ligand. The stably and constitutively expressed fusion protein GR-GAL4-humanPPARalpha-LBD binds in the cell nucleus of the PPARalpha reporter cell line via the GAL4 protein portion to the GAL4 DNA binding motifs 5′-upstream of the luciferase reporter element which is stably integrated in the genome of the cell line. There is only little expression of the luciferase reporter gene without addition of a PPARalpha ligand if fatty acid-depleted fetal calf serum (cs-FCS) is used in the assay. PPARalpha ligands bind and activate the PPARalpha fusion protein and thereby bring about expression of the luciferase reporter gene. The luciferase which is formed can be detected by means of chemiluminescence via an appropriate substrate.
The PPARalpha reporter cell line was prepared in two steps. Firstly, the luciferase reporter element was constructed and stably transfected into HEK cells. For this purpose, five binding sites of the yeast transcription factor GAL4 (in each case 5′-CGGAGTACTGTCCTCCGAG-3′) were cloned in 5′-upstream of a 68 bp-long minimal MMTV promoter (Genbank Accession #V01175). The minimal MMTV promoter section contains a CCAAT box and a TATA element in order to enable efficient transcription by RNA polymerase II. The cloning and sequencing of the GAL4-MMTV construct took place in analogy to the description of Sambrook J. et. al. (Molecular cloning, Cold Spring Harbor Laboratory Press, 1989). Then the complete Photinus pyralis luciferase gene (Genbank Accession #M15077) was cloned in 3′-downstream of the GAL4-MMTV element. After sequencing, the luciferase reporter element consisting of five GAL4 binding sites, MMTV promoter and luciferase gene was subcloned into a plasmid which confers zeozin resistance in order to obtain the plasmid pdeltaM-GAL4-Luc-Zeo. This vector was transfected into HEK cells in accordance with the statements in Ausubel, F. M. et al. (Current protocols in molecular biology, Vol. 1-3, John Wiley & Sons, Inc., 1995).
In a second step, the PPARalpha fusion protein (GR-GAL4-humanPPARalpha-LBD) was introduced into the stable cell clone described. For this purpose, initially the cDNA coding for the N-terminal 76 amino acids of the glucocorticoid receptor (Genbank Accession #P04150) was linked to the cDNA section coding for amino acids 1-147 of the yeast transcription factor GAL4 (Genbank Accession #P04386). The cDNA of the ligand-binding domain of the human PPARalpha receptor (amino acids S167-Y468; Genbank Accession #S74349) was cloned in at the 3′ end of this GR-GAL4 construct. The fusion construct prepared in this way (GR-GAL4-humanPPARalpha-LBD) was subcloned into the plasmid pcDNA3 (from Invitrogen) in order to enable constitutive expression therein by the cytomegalovirus promoter. This plasmid was linearized with a restriction endonuclease and stably transfected into the previously described cell clone containing the luciferase reporter element. The finished PPARalpha reporter cell line which contains a luciferase reporter element and constitutively expresses the PPARalpha fusion protein (GR-GAL4-humanPPARalpha-LBD) was isolated by selection with zeozin (0.5 mg/ml) and G418 (0.5 mg/ml).
The activity of PPARalpha agonists is determined in a 3-day assay which is described below: […]

human PPARgamma = biological target: T2, human PPARgamma (Homo sapiens, UniProt P37231); test: Cellular PPARgamma assay (transiently transfected HEK cells, luciferase reporter); format: cell-based; settings: HEK cells transiently transfected with GAL4-humanPPARgammaLBD, 48 h incubation, firefly/Renilla luciferase ratio
T2 construct: human PPARgamma receptor (amino acids I152-Y475); expressed in transfected cells; host or cells: HEK cells, transiently transfected with pcDNA3-GAL4-humanPPARgammaLBD
T2 sequence (P37231 182-505 limits assumed): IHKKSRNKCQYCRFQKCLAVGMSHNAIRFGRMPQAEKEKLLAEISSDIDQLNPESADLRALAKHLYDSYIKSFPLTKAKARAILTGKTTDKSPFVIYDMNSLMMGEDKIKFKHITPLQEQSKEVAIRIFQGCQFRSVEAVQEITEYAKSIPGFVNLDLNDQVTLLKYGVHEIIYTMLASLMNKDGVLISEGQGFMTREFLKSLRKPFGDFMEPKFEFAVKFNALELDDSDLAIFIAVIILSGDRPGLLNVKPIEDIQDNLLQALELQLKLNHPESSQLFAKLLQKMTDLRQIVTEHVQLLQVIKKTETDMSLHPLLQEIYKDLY
Description: Determination of EC50 Values of PPAR Agonists in the Cellular PPARgamma Assay
A transient transfection system is employed to determine the cellular PPARgamma activity of PPAR agonists. It is based on the use of a luciferase reporter plasmid (pGL3basic-5xGAL4-TK) and of a PPARgamma expression plasmid (pcDNA3-GAL4-humanPPARgammaLBD). Both plasmids are transiently transfected into human embryonic kidney cells (HEK cells). There is then expression in these cells of the fusion protein GAL4-humanPPARgammaLBD which binds to the GAL4 binding sites of the reporter plasmid. In the presence of a PPARgamma-active ligand, the activated fusion protein GAL4-humanPPARgammaLBD induces expression of the luciferase reporter gene, which can be detected in the form of a chemiluminescence signal after addition of a luciferase substrate. As a difference from the stably transfected PPARalpha reporter cell line, in the cellular PPARgamma assay the two components (luciferase reporter plasmid and PPARgamma expression plasmid) are transiently transfected into HEK cells because stable and permanent expression of the PPARgamma fusion protein is cytotoxic.
The luciferase reporter plasmid pGL3basic-5xGAL4-TK is based on the vector pGL3basic from Promega. The reporter plasmid is prepared by cloning five binding sites of the yeast transcription factor GAL4 (each binding site with the sequence 5′-CTCGGAGGACAGTACTCCG-3′), together with a 160 bp-long thymidine kinase promoter section (Genbank Accession #AF027128) 5′-upstream into pGL3basic. 3′-downstream of the thymidine kinase promoter is the complete luciferase gene from Photinus pyralis (Genbank Accession #M15077), which is already a constituent of the plasmid pGL3basic used. The cloning and sequencing of the reporter plasmid pGL3basic-5xGAL4-TK took place in analogy to the description in Sambrook J. et. al. (Molecular cloning, Cold Spring Harbor Laboratory Press, 1989).
The PPARgamma expression plasmid pcDNA3-GAL4-humanPPARgammaLBD was prepared by first cloning the cDNA coding for amino acids 1-147 of the yeast transcription factor GAL4 (Genbank Accession #P04386) into the plasmid pcDNA3 (from Invitrogen) 3′-downstream of the cytomegalovirus promoter. Subsequently, the cDNA of the ligand-binding domain (LBD) of the human PPARgamma receptor (amino acids I152-Y475; Accession #g1480099) 3′-downstream of the GAL4 DNA binding domain was cloned. Cloning and sequencing of the PPARgamma expression plasmid pcDNA3-GAL4-humanPPARgammaLBD again took place in analogy to the description in Sambrook J. et. al. (Molecular cloning, Cold Spring Harbor Laboratory Press, 1989). Besides the luciferase reporter plasmid pGL3basic-5xGAL4-TK and the PPARgamma expression plasmid pcDNA3-GAL4-humanPPARgammaLBD, also used for the cellular PPARgamma assay are the reference plasmid pRL-CMV (from Promega) and the plasmid pBluescript SK(+) from Stratagene. All four plasmids were prepared using a plasmid preparation kit from Qiagen, which ensured a plasmid quality with a minimal endotoxin content, before transfection into HEK cells.
The activity of PPARgamma agonists is determined in a 4-day assay which is described below. Before the transfection, HEK cells are cultivated in DMEM medium (#41965-039, Invitrogen) which is mixed with the following additions: 10% FCS (#16000-044, Invitrogen), 1% penicillin-streptomycin solution (#15140-122, Invitrogen) and 2 mM L-glutamine (#25030-024, Invitrogen).
A transfection mixture (solution A) which contains all four plasmids previously described in a DMEM medium, is prepared. The following amounts are used to make up 3 ml of solution A for each 96-well microtiter plate for an assay: 2622 μl of antibiotic- and serum-free DMEM medium (#41965-039, Invitrogen), 100 μl of reference plasmid pRL-CMV (1 ng/μl), 100 μl of luciferase reporter plasmid pGL3basic-5xGAL4-TK (10 ng/μl), 100 μl of PPARgamma expression plasmid pcDNA3-GAL4-humanPPARgammaLBD (100 ng/μl) and 78 μl of plasmid pBluescript SK(+) (500 ng/μl). […]

| SMILES | EC50 (human PPARalpha) | EC50 (human PPARgamma) |
| --- | --- | --- |
| Cc1cccc(COCCCOCc2nc(-c3ccc(-c4ccccc4)cc3)oc2C)c1C(=O)O [Example 3, 2-Methyl-6-[3-(5-methyl-2-p-biphenyloxazol-4-ylmethoxy)propoxymethyl]benzoic acid] | 4.2 nM | 150 nM |
| CCc1oc(-c2cccc(OC)c2)nc1COCCCOCc1cccc(C)c1C(=O)O [Example 17] | 3.7 nM | 91 nM |
| Cc1ccc(-c2nc(COCCCOCc3cccc(C)c3C(=O)O)c(C3CCCCC3)o2)cc1 [Example 22, 2-Methyl-6-{3-[5-cyclohexyl-2-p-tolyloxazol-4-ylmethoxy]propoxymethyl}benzoic acid] | 22 nM | 710 nM |
| COc1cccc(-c2nc(COCCCCOCc3cccc(C)c3C(=O)O)c(C)o2)c1 [Example 31, 2-Methyl-6-{4-[2-(3-methoxyphenyl)-5-methyloxazol-4-ylmethoxy]butoxymethyl}-benzoic acid] | 1.4 nM | 17 nM |
| Cc1cccc(COCCCCOCc2nc(-c3cccc(C(F)(F)F)c3)oc2C(C)C)c1C(=O)O [Example 32, 2-{4-[5-Isopropyl-2-(3-trifluoromethylphenyl)oxazol-4-ylmethoxy]butoxymethyl}-6-methylbenzoic acid] | 1.6 nM | 72 nM |
| Cc1cccc(COCCCCOCc2nc(-c3ccc(-c4ccccc4)cc3)oc2C)c1C(=O)O [Example 33, 2-Methyl-6-[4-(2-p-biphenyl-5-methyloxazol-4-ylmethoxy)butoxymethyl]benzoic acid] | 21 nM | 14 nM |

Second part, the compound after the results:

| EC50 (human PPARalpha) | EC50 (human PPARgamma) | SMILES |
| --- | --- | --- |
| 1 nM | > 10000 nM | Cc1cccc(COCCCOCc2coc(-c3ccccc3)n2)c1C(=O)O [*, reference compound] |
| 11 nM | 40 nM | Cc1cccc(COCCCOCc2nc(-c3ccc(Oc4ccccc4)cc3)oc2C)c1C(=O)O [Example 8, 2-Methyl-6-{3-[5-methyl-2-(4-phenoxyphenyl)oxazol-4-ylmethoxy]propoxymethyl}-benzoic acid] |
| 8.7 nM | 630 nM | COc1ccc(-c2nc(COCCCOCc3cccc(C)c3C(=O)O)c(C)o2)cc1OC [Example 11, 2-Methyl-6-{3-[5-methyl-2-(3,4-dimethoxyphenyl)oxazol-4-ylmethoxy]propoxymethyl}-benzoic acid] |
| 88 nM | 1800 nM | Cc1ccc(-c2nc(COCCCOCc3cccc(C)c3C(=O)O)c(-c3ccccc3)o2)cc1 [Example 23, 2-Methyl-6-[3-(5-phenyl-2-p-tolyloxazol-4-ylmethoxy)propoxymethyl]benzoic acid] |
| 13 nM | 390 nM | COc1cccc(-c2nc(COCC(C)(C)COCc3cccc(C)c3C(=O)O)c(C)o2)c1 [Example 27, 2-{3-[2-(3-Methoxyphenyl)-5-methyloxazol-4-ylmethoxy]-2,2-dimethylpropoxymethyl}-6-methylbenzoic acid] |
